Experimental data from PubChem BioAssay (NCI).
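Cultured in 96-well plates, cells were exposed to test compound for 48 hours across five concentrations. Definition used: TGI = concentration required for complete inhibition of growth.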

Legend:
Experiment in all cases: NCI anticancer screen, dose series, 48 h
[1] = tested on: SK-OV-3 ovarian
[2] = tested on: DMS 114 small cell lung
[3] = tested on: HCT-116 colon
[4] = tested on: SF-268 CNS
[5] = tested on: NCI-H23 lung
[6] = tested on: TK-10 renal
[7] = tested on: SR leukemia
[8] = tested on: SNB-78 CNS
[9] = tested on: CCRF-CEM leukemia
[10] = tested on: ACHN renal
[11] = tested on: RXF-631 renal
[12] = tested on: IGROV1 ovarian
[13] = tested on: KM12 colon
[14] = tested on: OVCAR-5 ovarian
[15] = tested on: EKVX NSCLC
[16] = tested on: A549 NSCLC
[17] = tested on: U251 CNS
[18] = tested on: HL-60(TB) leukemia
[19] = tested on: SK-MEL-28 melanoma
[20] = tested on: HOP-92 NSCLC
[21] = tested on: RXF 393 renal
[22] = tested on: UO-31 renal
[23] = tested on: MOLT-4 leukemia
[24] = tested on: UACC-62 melanoma
[25] = tested on: SNB-19 CNS
[26] = tested on: NCI-H522 lung
[27] = tested on: LOX IMVI melanoma
[28] = tested on: DMS 273 small cell lung
[29] = tested on: OVCAR-3 ovarian
[30] = tested on: M14 melanoma
[31] = tested on: HT29 colon
[32] = tested on: HOP-18 NSCLC
[33] = tested on: OVCAR-8 ovarian
[34] = tested on: SF-539 CNS
[35] = tested on: DLD-1 colon
[36] = tested on: KM20L2 colon
[37] = tested on: SK-MEL-2 melanoma
[38] = tested on: HCT-15 colon
[39] = tested on: HCC-2998 colon
[40] = tested on: UACC-257 melanoma
[41] = tested on: A498 renal
[42] = tested on: MALME-3M melanoma
[43] = tested on: NCI-H460 lung
[44] = tested on: 786-0 renal
[45] = tested on: LXFL 529 NSCLC
[46] = tested on: SNB-75 CNS
[47] = tested on: SN12C renal
[48] = tested on: SF-295 CNS
[49] = tested on: HOP-62 NSCLC
[50] = tested on: COLO 205 colon
[51] = tested on: OVCAR-4 ovarian
[52] = tested on: M19-MEL melanoma
[53] = tested on: RPMI-8226 leukemia
[54] = tested on: SW-620 colon

Measured: TGI

C=CC1C2=C(C(=O)NCC2)C2OC(O)C3=C(CCNC3=O)C2C1C (centres undefined)
> 100 µM: [1] | [2] | [3] | [4] | [5] | [6] | [7] | [8] | [9] | [10] | [11] | [12] | [13] | [14] | [15] | [16] | [17] | [18] | [19] | [20] | [21] | [22] | [23] | [24] | [25] | [26]

COc1ccc(/C=C2/CCCC/C2=N/O)cc1
not listed: [7]
> 100 µM: all other assays above
